Experimental data reported in PMC9737847, “Complex Formation between Cytochrome c and a Tetra-alanino-calix[4]arene” (International Journal of Molecular Sciences, 2022).

Molecular target: T1, cytochrome c (Saccharomyces cerevisiae, UniProt P00044, C108T)
T1 construct: gene CYC1; 15N-labeled cytochrome c C102T, residues numbered from -5 to 103
Test: 1H-15N HSQC NMR titration, […] binding model, […] °C, pH […]

T1 sequence (P00044 2-109 C108T): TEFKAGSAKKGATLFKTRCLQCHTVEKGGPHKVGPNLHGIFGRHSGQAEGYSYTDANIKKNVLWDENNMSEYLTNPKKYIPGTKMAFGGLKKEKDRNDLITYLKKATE

Question: Which Kd does the source give for `C[C@H](NC(=O)c1cc2c3c(c1)Cc1cc(C(=O)N[C@@H](C)C(=O)O)cc4c1OCCOCCOc1c(cc(C(=O)N[C@@H](C)C(=O)O)cc1Cc1cc(C(=O)N[C@@H](C)C(=O)O)cc(c1OCCOCCO3)C2)C4)C(=O)O` [compound 1, Tetra-alanino-calix[4]arene-biscrown-3] here?
Answer: ~400 µM
